PubChem BioAssay AID743039 (Broad Institute, 2013)
Calls of active or inactive are those of the source.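 Rule for the calls: active = fitted curve rises past 0.47 at a concentration no higher than the top valid tested dose; inconclusive = flat curve at a moderate level, or poor fit; inactive = the rest, including signal moving the wrong way.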

Test system: compound-only thermal shift, SYPRO orange fluorescence, no protein
Assay: dye fluorescence signal without protein – biophysical, SYPRO orange, qPCR instrument, dry powder samples, artefact control for FGF22 binder project, dose response (AID 743039)
Settings: at 0.16 µM

thermal shift signal, higher = interference	SMILES
-0.026% (inactive)	O=C(N/N=C/c1cccc(Oc2ccccc2)c1)c1cccc(O)c1
-0.093% (inactive)	CCc1cc(-c2n[nH]c(C)c2-c2ccc3c(c2)OCCO3)c(O)cc1O
-0.009% (inactive)	CC(C)c1c(C(=O)N/N=C/c2c[nH]c3ccccc23)nnn1-c1nonc1N
0.168% (inactive)	Cc1ccc(S(=O)(=O)N2C[C@H](O)COC[C@H]3O[C@H](CC(=O)NCc4ccc(Cl)c(Cl)c4)CC[C@@H]32)cc1
-0.114% (inactive)	COc1cc(/C=N/NC(=O)c2cc3ccccc3[nH]2)ccc1O
0.011% (inactive)	COc1ccc(-c2nc(-c3ccc(O)cc3O)cs2)cc1OC
0.305% (inactive)	CSc1ccc(/C=N/NC(=O)c2ccc3nc[nH]c3c2)cc1
-0.028% (inactive)	O=C(N/N=C/c1ccc(C(F)(F)F)cc1)c1ccc(O)cc1
-0.182% (inactive)	COC(=O)C1=C(CS(=O)(=O)c2cc(OC)ccc2OC)NC(=O)NC1c1ccc(O)c(OC)c1 (stereo not given)
0.097% (inactive)	COC(=O)C[C@H]1CC[C@@H]2[C@@H](COc3ccc(NC(=O)Nc4cccc(C#N)c4)cc3C(=O)N2C)O1
0.235% (inactive)	CC(=O)c1ccc(NC(=O)Nc2cccnc2)cc1
0.052% (inactive)	CCNC(=O)C[C@@H]1CC[C@H]2[C@H](COc3ccc(NC(=O)Nc4ccc(Cl)cc4)cc3C(=O)N2C)O1
0.052% (inactive)	Cc1cc(NC(=O)Nc2ccc3c(ccn3C)c2)sn1
0.048% (inactive)	O=C(NCCc1c[nH]c2ccccc12)c1ccc(Cl)cc1
0.355% (inactive)	O=C(N/N=C/c1c[nH]c2ccccc12)c1cccc(O)c1
0.042% (inactive)	Nc1ccc(C(=O)N/N=C/c2c[nH]c3ccccc23)cc1
0.069% (inactive)	O=C(N/N=C/c1c[nH]c2ccccc12)c1cccc(Cl)c1
0.057% (inactive)	O=S1(=O)N=C(N(Cc2cccs2)c2ccc(O)cc2)c2ccccc21
0.048% (inactive)	CCN1C/C(=C/c2cccs2)c2nc3ccccc3c(C(=O)O)c2C1
0.061% (inactive)	O=C(Nc1cc(Cl)cc(Cl)c1)N[C@@H]1CC[C@@H](CCNS(=O)(=O)c2cccc(F)c2)O[C@H]1CO
0.145% (inactive)	Nc1cccc(-c2nc3ccc(C(=O)c4ccccc4)cc3[nH]2)c1
-0.066% (inactive)	CCOc1cccc(C(=O)Nc2ccc3[nH]ncc3c2)c1
-0.049% (inactive)	CCc1cc(-c2[nH]ncc2-c2ccc3c(c2)OCCO3)c(O)cc1O
-0.05% (inactive)	O=C(Nc1ccc(S(=O)(=O)N2CCOCC2)cc1)c1ccc(F)cc1
-0.157% (inactive)	O=C(Nc1ccc(S(=O)(=O)N2CCCC2)cc1)c1cccs1

thermal shift signal, higher = interference	SMILES
-0.057% (inactive)	Cc1ccn(-c2ccc(NC(=O)c3cccs3)cc2)n1
-0.045% (inactive)	CN(Cc1c(C(=O)N/N=C/c2ccc(O)cc2)nnn1-c1nonc1N)c1ccccc1
0.145% (inactive)	Cc1cc(C(=O)N/N=C/c2c[nH]c3ccccc23)cs1
0.065% (inactive)	O=C(N/N=C/c1c[nH]c2ccccc12)c1ccc(O)c(O)c1
0.188% (inactive)	O=C(O)Cc1ccc(NC(=O)c2ccc(Cl)c(Cl)c2)cc1
0.019% (inactive)	CC(=O)Nc1cccc(C(=O)N/N=C/c2c[nH]c3ccccc23)c1
-0.148% (inactive)	Cc1[nH]c2ccccc2c1C(=O)NS(=O)(=O)Nc1ccc(Cl)cc1
0.004% (inactive)	O=C(Nc1cc(Cl)cc(Cl)c1)N[C@@H]1CC[C@@H](CCNS(=O)(=O)c2cccc(F)c2)O[C@@H]1CO
-0.209% (inactive)	O=C(Nc1ccc(S(=O)(=O)N2CCCC2)cc1)c1ccccc1
-0.157% (inactive)	CCCNC(=O)COC(=O)c1ccccc1C(=O)N(C)C1CCCCC1
0.246% (inactive)	CC(=O)Nc1ccc(NC(=O)Nc2ccccc2)cc1
-0.063% (inactive)	O=C(C[C@H]1CC[C@@H]2[C@H](COC[C@H](O)CN2S(=O)(=O)c2cccc(Cl)c2)O1)Nc1ccccc1
-0.322% (inactive)	Cc1[nH]c2ccc(C(=O)OCC(=O)Nc3cccc(S(N)(=O)=O)c3)cc2c1C
-0.182% (inactive)	O=C(N/N=C/c1c[nH]c2ccccc12)c1cccs1
-0.12% (inactive)	Cc1ccc(OCCCC(=O)Nc2ccc(S(=O)(=O)N3CCOCC3)cc2)cc1
-0.227% (inactive)	CC(=O)Nc1cccc(NC(=O)c2ccc3[nH]c(C)c(C)c3c2)c1
-0.043% (inactive)	O=C(Nc1ccc(Cl)cc1)N[C@@H]1CC[C@@H](CCNS(=O)(=O)c2ccccc2F)O[C@H]1CO
-0.148% (inactive)	O=C(Nc1nccs1)C1CC(=O)N(c2ccc(F)cc2)C1 (stereo not given)
-0.178% (inactive)	Clc1ccc(Nc2ccc(NCc3ccccc3)nn2)cc1
-0.005% (inactive)	COc1ccc(C)cc1NS(=O)(=O)c1ccc(NS(=O)(=O)c2ccc(NC(C)=O)cc2)cc1
-0.081% (inactive)	O=S(=O)(Nc1nnc(C(F)(F)F)s1)c1ccc(Cl)cc1
0.237% (inactive)	COC(=O)C[C@H]1CC[C@@H]2[C@@H](COc3ccc(NC(=O)Nc4ccc(C#N)cc4)cc3C(=O)N2C)O1
0.188% (inactive)	COc1ccc(Nc2nc3ccc(OC)cc3s2)cc1
0.045% (inactive)	Cc1ccc(S(=O)(=O)N2C[C@@H](O)COC[C@@H]3O[C@@H](CC(=O)NCc4ccc(Cl)c(Cl)c4)CC[C@H]32)cc1
-0.165% (inactive)	CCN1C(=O)C(CC(=O)Nc2ccc(F)cc2)N(Cc2ccc3c(c2)OCO3)C1=S (stereo not given)
